Reference: US11779661B2, “Theranostic nucleic acid binding fluorescent nanoprobes and uses thereof” (The General Hospital Corporation, priority 2016, dated 2023)

Test system: Bacterial Phage Lambda DNA
Assay: In vitro nucleic acid binding fluorescence assay, Lambda DNA
Settings: equivalent fluorochrome concentrations, FIG. 1F
Procedure: Bacterial Phage Lambda DNA (Sigma-Aldrich), CpG DNA (Enzo Life, Plymouth Meeting, Pa.), Torula yeast RNA (Sigma-Aldrich) were completely dissolved in Tris-acetate-EDTA (TAE) buffer (pH=8) by gentle inversion overnight at 4° C. Lambda DNA, CpG DNA, yeast RNA stock solutions were characterized by spectrophotometry to determine the concentration and purity. Total mouse heart RNA was extracted from C57Bl6 mouse hearts using TRI Reagent (Sigma-Aldrich) and characterized with a NanoDrop spectrophotometer (Thermo Fisher) as described in Feng Y, Chen H, et al., J Biol Chem. 2015; 290: 26688-98. […] Fluorescence was measured with the GloMax-Multi Detection System and snap-in fluorescent optical kits (Promega, Madison, Wis.). EC50 was determined using the dose-response curve fitting function implemented in Prism (GraphPad, La Jolla, Calif.).

| Fluorescence increase with DNA concentration | Molecule |
| --- | --- |
| substantially less increase | CN1/C(=C/c2cc[n+](CCC[N+](C)(C)C)c3ccccc23)Sc2ccccc21 [TO-PRO 1] |
| No fluorescence increase and none | Cy5.5 |
